Reference: ChEMBL document CHEMBL3400147, “New septanoside and 20-hydroxyecdysone septanoside derivative from Atriplex portulacoides roots with preliminary biological activities” (Bioorg Med Chem Lett, 2015)
Converted amounts (≈) assume the structure as drawn. The source made the active and inactive calls. The rule behind the calls is not given here.

Experiments:
[1] = Antioxidant activity assessed as ABTS radical scavenging activity incubated for 6 mins; format: physicochemical
[2] = Antioxidant activity assessed as ferric-reducing antioxidant power after 20 mins at 50 degC by UV spectrophotometry; format: physicochemical
[3] = Antioxidant activity assessed as DPPH radical scavenging activity incubated for 30 mins by UV absorption spectrometry; format: physicochemical
[4] = tested on: Staphylococcus aureus; test: Antimicrobial activity against Staphylococcus aureus ATCC 25923 incubated for 24 hrs by microtiter plate dilution method; format: functional
[5] = target: T1, Cholinesterase (Homo sapiens, UniProt P06276); test: Inhibition of BchE in human plasma incubated for 30 mins using butyrylthiocholine substrate at 37 degC by DTNB dye based spectrophotometry
[6] = tested on: Pseudomonas aeruginosa; test: Antimicrobial activity against Pseudomonas aeruginosa ATCC 27853 incubated for 24 hrs by microtiter plate dilution method; format: functional
[7] = tested on: Escherichia coli; test: Antimicrobial activity against Escherichia coli ATCC 25922 incubated for 24 hrs by microtiter plate dilution method; format: functional
[8] = tested on: Enterococcus faecalis; test: Antimicrobial activity against Enterococcus faecalis ATCC 29212 incubated for 24 hrs by microtiter plate dilution method; format: functional
[9] = Antioxidant activity assessed as catalase activity by measuring hydrogen peroxide disappearance per mg protein measured for 1 min at 25 degC; format: physicochemical
[10] = target: T1, Cholinesterase; test: Inhibition of BchE in human plasma at 1 mg/ml incubated for 30 mins using butyrylthiocholine substrate at 37 degC by DTNB dye based spectrophotometry

T1 sequence (P06276 whole entry): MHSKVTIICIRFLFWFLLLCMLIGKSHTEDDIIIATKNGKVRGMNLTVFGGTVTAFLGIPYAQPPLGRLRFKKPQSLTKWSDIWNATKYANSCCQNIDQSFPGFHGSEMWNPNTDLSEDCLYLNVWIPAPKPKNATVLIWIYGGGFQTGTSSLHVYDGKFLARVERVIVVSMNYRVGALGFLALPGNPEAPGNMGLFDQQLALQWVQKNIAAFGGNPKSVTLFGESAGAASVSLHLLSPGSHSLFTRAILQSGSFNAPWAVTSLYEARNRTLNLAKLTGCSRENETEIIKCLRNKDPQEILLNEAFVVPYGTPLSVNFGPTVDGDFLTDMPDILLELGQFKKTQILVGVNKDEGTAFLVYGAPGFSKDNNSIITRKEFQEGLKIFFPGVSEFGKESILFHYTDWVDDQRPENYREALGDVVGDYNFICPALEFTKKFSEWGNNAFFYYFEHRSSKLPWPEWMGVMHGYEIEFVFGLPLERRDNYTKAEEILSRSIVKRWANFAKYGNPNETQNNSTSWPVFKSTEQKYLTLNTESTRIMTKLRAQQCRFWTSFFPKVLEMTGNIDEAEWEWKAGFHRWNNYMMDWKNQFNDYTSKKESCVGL

SMILES | IC50 [1] | IC50 [2] | IC50 [3] | MIC [4] | IC50 [5] | MIC [6] | MIC [7] | MIC [8] | Activity [9] | MIC ([4]; ATCC 25923, 24 h) [µg/mL] | IC50 ([5]; read-out: IC50 (converted)) [µM] | MIC ([6]; ATCC 27853, 24 h) [µg/mL] | MIC ([7]; ATCC 25922, 24 h) [µg/mL] | MIC ([8]; ATCC 29212, 24 h) [µg/mL] | inhibition [10] [%]
Cc1c(C)c2c(c(C)c1O)CCC(C)(C(=O)O)O2 (configuration not stated) [TROLOX] | 2.02 µg/mL (≈ 8.07 µM) | 47.32 µg/mL (≈ 189 µM) | 14.56 µg/mL (≈ 58.2 µM) |  |  |  |  |  |  |  |  |  |  |  | 
CCCCOC1(O)COC[C@@H](O)[C@@H](O)[C@H]1O (some centres not stated) | Not Active | Not Active | Not Active | inactive | Not Active | inactive | inactive | inactive | Not Active |  |  |  |  |  | 
CC(C)(O)CC[C@@H](O)[C@](C)(O)[C@H]1CC[C@@]2(O)C3=CC(=O)[C@@H]4C[C@@H](O)[C@@H](O)C[C@]4(C)[C@H]3CC[C@]12C [20-HYDROXYECDYSONE] | 98.74 µg/mL (≈ 205 µM) | 262.45 µg/mL (≈ 546 µM) | 155.82 µg/mL (≈ 324 µM) |  |  |  |  |  | 112.35 µmol/min | 125 (≈ 260 µM) | 1050 | 62 (≈ 129 µM) | 125 (≈ 260 µM) | 125 (≈ 260 µM) | 71.2
CN[C@H](CC(C)C)C(=O)N[C@H]1C(=O)N[C@@H](CC(N)=O)C(=O)N[C@H]2C(=O)N[C@H]3C(=O)N[C@H](C(=O)N[C@H](C(=O)O)c4cc(O)cc(O)c4-c4cc3ccc4O)[C@H](O)c3ccc(c(Cl)c3)Oc3cc2cc(c3O[C@@H]2O[C@H](CO)[C@@H](O)[C@H](O)[C@H]2O[C@H]2C[C@](C)(N)[C@H](O)[C@H](C)O2)Oc2ccc(cc2Cl)[C@H]1O [VANCOMYCIN] |  |  |  |  |  |  |  |  |  | 3 (≈ 2.07 µM) |  | 1 (≈ 0.69 µM) | 1 (≈ 0.69 µM) | 62 (≈ 42.8 µM) | 
O=C1O[C@H]([C@@H](O)CO)C(O)=C1O [ASCORBIC ACID] |  |  |  |  |  |  |  |  | 757.575 µmol/min |  |  |  |  |  | 
CO[C@]1(O[C@@H](CCC(C)(C)O)[C@](C)(O)[C@H]2CC[C@@]3(O)C4=CC(=O)[C@@H]5C[C@@H](O)[C@@H](O)C[C@]5(C)[C@H]4CC[C@]23C)COC[C@@H](O)[C@@H](O)[C@H]1O | 111.24 µg/mL (≈ 169 µM) | 288.36 µg/mL (≈ 439 µM) | 180.26 µg/mL (≈ 274 µM) |  |  |  |  |  | 159.62 µmol/min | 125 (≈ 190 µM) | 837 | 125 (≈ 190 µM) | 62 (≈ 94.4 µM) | 125 (≈ 190 µM) | 68.3
